Test results from patent US12173018B2, “Penicillin-binding protein inhibitors” (priority 2018, dated 2024).
Values after ≈ are worked out from the molar mass of the structure shown. Where two headings read alike, the source gives them in different places.

How the values were obtained:
E. coli AG100 = test: Broth microdilution MIC, E. coli AG100 (wild-type parent); format: cell-based; settings: Escherichia coli
Method in brief: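 Starting inoculum of 5×10^5 CFU/mL, from colonies grown 3-5 h in Mueller-Hinton broth with divalent cations, added to two-fold compound dilution series.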

E. coli 901C = test: microbe, parasite or virus in culture; format: cell-based; settings: Escherichia coli, read-out: MIC E. coli 901C
Method in brief: (§1)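 MIC = lowest concentration showing no visible growth after 16-20 h at 37° C. Cation-adjusted MH broth, 2-fold serial dilutions, starting inoculum 5×10^5 CFU/mL, per CLSI methods.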

E. coli AG100A = test: microbe, parasite or virus in culture; format: cell-based; settings: Escherichia coli, read-out: MIC E. coli AG100A
Method in brief: as §1

E. coli D22 = test: microbe, parasite or virus in culture; format: cell-based; settings: Escherichia coli
Method in brief: as §1

K. pneumoniae 848844 = test: microbe, parasite or virus in culture; format: cell-based, Klebsiella pneumoniae
Method in brief: as §1

[1] = tested on: N. gonorrhoeae ATCC 49226; test: Liquid broth MIC, N. gonorrhoeae ATCC 49226; format: cell-based; settings: Neisseria gonorrhoeae
Method in brief: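 Visual MIC: lowest concentration well showing no bacterial growth after 40-42 h at 36° C in 5% CO2. Inoculum 5×10^5 CFU/mL from colonies swabbed into GC broth, set by OD600; compounds in 2-fold serial dilution.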

[2] = tested on: P. aeruginosa (ΔmexAB-oprM); test: microbe, parasite or virus in culture; format: cell-based; settings: Pseudomonas aeruginosa, read-out: MIC P. aeruginosa ΔmexAB-OprM
Method in brief: as §1

P. aeruginosa ATCC 35151 = test: microbe, parasite or virus in culture; format: cell-based; settings: Pseudomonas aeruginosa
Method in brief: as §1

P. aeruginosa PAO1 = test: Broth microdilution MIC, P. aeruginosa PAO1; format: cell-based; settings: Pseudomonas aeruginosa; P. aeruginosa PAO1, broth microdilution; read-out: MIC P. aeruginosa PAO1
Method in brief: as §1

A. baumannii ATCC 19606 = test: Broth microdilution MIC, A. baumannii ATCC 19606; format: cell-based; settings: Acinetobacter baumannii
Method in brief: as §1

[3] = wild-type parent E. coli AG100, broth microdilution, read-out: MIC E. coli AG100
[4] = hyper-permeable E. coli 901C, broth microdilution
[5] = hyper-permeable E. coli D22, broth microdilution, read-out: MIC E. coli D22
[6] = Klebsiella pneumoniae, K. pneumoniae 848844 producing SHV-11 and KPC-2, read-out: MIC K. pneumoniae 848844
[7] = ATCC49226, N. gonorrhoeae ATCC 49226, liquid broth, read-out: Minimum Inhibitory Concentration, N. gonorrhoeae ATCC 49226
[8] = ATCC35151, hyper-permeable P. aeruginosa ATCC 35151, read-out: MIC P. aeruginosa ATCC 35151
[9] = ATCC19606, A. baumannii ATCC 19606, broth microdilution, read-out: MIC A. baumannii ATCC 19606
[10] = Klebsiella pneumoniae, 848844, read-out: MIC K. pneumoniae 848844

Row | SMILES | MIC (E. coli AG100; [3]) [µg/mL] | MIC (E. coli 901C; [4]) [µg/mL] | MIC (E. coli AG100A) [µg/mL] | MIC (E. coli D22; [5]) [µg/mL] | MIC (K. pneumoniae 848844; [6]) [µg/mL] | MIC [1, 7] [µg/mL] | MIC [2] [µg/mL] | MIC (P. aeruginosa ATCC 35151; [8]) [µg/mL] | MIC (P. aeruginosa PAO1) [µg/mL] | MIC (A. baumannii ATCC 19606; [9]) [µg/mL] | MIC (E. coli AG100; AG100, read-out: MIC E. coli AG100) [µg/mL] | MIC (E. coli 901C; 901C) [µg/mL] | MIC (E. coli D22; D22, read-out: MIC E. coli D22) [µg/mL] | MIC (K. pneumoniae 848844; [10]) [µg/mL] | MIC (A. baumannii ATCC 19606; ATCC19606, read-out: MIC A. baumannii ATCC 19606) [µg/mL] | MIC ([1]; ATCC49226, read-out: Minimum Inhibitory Concentration, N. gonorrhoeae ATCC 49226) [µg/mL] | MIC (P. aeruginosa ATCC 35151; ATCC35151, read-out: MIC P. aeruginosa ATCC 35151) [µg/mL]
1 | CCN1CCN(C(=O)NC(C(=O)N[C@H]2Cc3cccc(C(=O)O)c3OB2O)c2csc(N)n2)C(=O)C1=O (stereo partly drawn) [Example 5, (3R)-3-(2-(2-aminothiazol-4-yl)-2-(4-ethyl-2,3-dioxopiperazine-1-carboxamido)acetamido)-2-hydroxy-3,4-dihydro-2H-benzo[e][1,2]oxaborinine-8-carboxylic acid] | 8 to 16 | < 0.25 | 2 to 4 | 2 to 4 | 32 to 64 | 1 to 2 (≈ 1.89 to 3.77 µM) |  |  |  |  |  |  |  |  |  |  | 
2 | O=C(O)c1cccc2c1OB(O)[C@@H](NC(=O)C(NC(=O)N1CCN(CCF)C(=O)C1=O)c1ccc(O)c(O)c1Cl)C2 (stereo partly drawn) [Example 71, (3R)-3-(2-(2-chloro-3,4-dihydroxyphenyl)-2-(4-(2-fluoroethyl)-2,3-dioxopiperazine-1-carboxamido)acetamido)-2-hydroxy-3,4-dihydro-2H-benzo[e][1,2]oxaborinine-8-carboxylic acid] | 2 to 4 | 0.5 to 1 | 2 to 4 |  |  |  | 2 to 4 | 0.5 to 1 | 32 to 64 | 0.5 to 1 |  |  |  |  |  |  | 
3 | CCN1CCN(C(=O)NC(C(=O)N[C@H]2Cc3ccc(F)c(C(=O)O)c3OB2O)c2csc(N)n2)C(=O)C1=O (stereo partly drawn) [Example 109, (3R)-3-(2-(2-aminothiazol-4-yl)-2-(4-ethyl-2,3-dioxopiperazine-1-carboxamido)acetamido)-7-fluoro-2-hydroxy-3,4-dihydro-2H-benzo[e][1,2]oxaborinine-8-carboxylic acid] | 8 to 16 | 0.5 to 1 | 8 to 16 | 2 to 4 | 32 to 64 | 1 to 2 (≈ 1.82 to 3.65 µM) |  |  |  |  |  |  |  |  |  |  | 
4 | CCN1CCN(C(=O)NC(C(=O)N[C@H]2Cc3cccc(C(=O)O)c3OB2O)c2ccc(B(O)O)cc2)C(=O)C1=O (stereo partly shown) [Example 112] |  |  | 2 to 4 |  |  | 1 to 2 (≈ 1.81 to 3.62 µM) |  |  |  |  | 32 to 64 | < 0.25 | 2 to 4 | > 128 |  |  | 
5 | O=C(O)c1cccc2c1OB(O)[C@@H](NC(=O)C(NC(=O)N1CCN(CCF)C(=O)C1=O)c1ccc(B(O)O)cc1)C2 (stereo partly drawn) [Example 113, (3R)-3-(2-(4-boronophenyl)-2-(4-(2-fluoroethyl)-2,3-dioxopiperazine-1-carboxamido)acetamido)-2-hydroxy-3,4-dihydro-2H-benzo[e][1,2]oxaborinine-8-carboxylic acid] | 32 to 64 | < 0.25 | 2 to 4 | 8 to 16 | > 128 | 1 to 2 (≈ 1.75 to 3.51 µM) |  |  |  |  |  |  |  |  |  |  | 
6 | CCCN1CCN(C(=O)NC(C(=O)N[C@H]2Cc3ccc(F)c(C(=O)O)c3OB2O)c2ccc(O)c(O)c2Cl)C(=O)C1=O (stereo partly shown) [Example 125] | 2 to 4 | 0.5 to 1 | 2 to 4 | 0.5 to 1 |  | 4 to 8 (≈ 6.59 to 13.2 µM) | < 0.25 | < 0.25 | 0.5 to 1 | < 0.25 |  |  |  |  |  |  | 
7 | CCN1CCN(C(=O)NC(C(=O)N[C@H]2Cc3cccc(C(=O)O)c3OB2O)c2ncc(O)cc2F)C(=O)C1=O (stereo partly drawn) [Example 135, (3R)-3-(2-(4-ethyl-2,3-dioxopiperazine-1-carboxamido)-2-(3-fluoro-5-hydroxypyridin-2-yl)acetamido)-2-hydroxy-3,4-dihydro-2H-benzo[e][1,2]oxaborinine-8-carboxylic acid] | 8 to 16 | < 0.25 | 2 to 4 | 0.5 to 1 | 32 to 64 | 1 to 2 (≈ 1.84 to 3.68 µM) |  |  |  |  |  |  |  |  |  |  | 
8 | NCCCN1CCN(C(=O)NC(C(=O)N[C@H]2Cc3cccc(C(=O)O)c3OB2O)c2ccc(O)c(O)c2Cl)C(=O)C1=O (stereo partly drawn) [Example 233, (3R)-3-(2-(4-(3-aminopropyl)-2,3-dioxopiperazine-1-carboxamido)-2-(2-chloro-3,4-dihydroxyphenyl)acetamido)-2-hydroxy-3,4-dihydro-2H-benzo[e][1,2]oxaborinine-8-carboxylic acid] | 0.5 to 1 | 0.5 to 1 | 0.5 to 1 | 0.5 to 1 | 2 to 4 | > 64 | < 0.25 | < 0.25 |  | 2 to 4 |  |  |  |  |  |  | 
9 | CCN1C[C@H](CO)N(C(=O)NC(C(=O)N[C@H]2Cc3cccc(C(=O)O)c3OB2O)c2ncc(O)cc2F)C(=O)C1=O (stereo partly drawn) [Example 234, (3R)-3-(2-((R)-4-ethyl-6-(hydroxymethyl)-2,3-dioxopiperazine-1-carboxamido)-2-(3-fluoro-5-hydroxypyridin-2-yl)acetamido)-2-hydroxy-3,4-dihydro-2H-benzo[e][1,2]oxaborinine-8-carboxylic acid] | > 128 | 2 to 4 | 8 to 16 | 8 to 16 | > 128 |  | 32 to 64 | 8 to 16 |  |  |  |  |  |  | > 128 | 16 to 32 (≈ 27.9 to 55.8 µM) | 
10 | CCNC(=O)NCCN1CCN(C(=O)NC(C(=O)N[C@H]2Cc3cccc(C(=O)O)c3OB2O)c2ccc(O)c(O)c2Cl)C(=O)C1=O (stereo partly drawn) [Example 235, (3R)-3-(2-(2-chloro-3,4-dihydroxyphenyl)-2-(4-(2-(3-ethylureido)ethyl)-2,3-dioxopiperazine-1-carboxamido)acetamido)-2-hydroxy-3,4-dihydro-2H-benzo[e][1,2]oxaborinine-8-carboxylic acid] | 8 to 16 | 2 to 4 | 2 to 4 | 2 to 4 | 2 to 4 | > 64 | < 0.25 | < 0.25 |  | 0.5 to 1 |  |  |  |  |  |  | 
11 | NCCCN1CCN(C(=O)N[C@@H](C(=O)N[C@H]2Cc3ccc(F)c(C(=O)O)c3OB2O)c2ccc(O)c(O)c2Cl)C(=O)C1=O [Example 236, (R)-3-((R)-2-(4-(3-aminopropyl)-2,3-dioxopiperazine-1-carboxamido)-2-(2-chloro-3,4-dihydroxyphenyl)acetamido)-7-fluoro-2-hydroxy-3,4-dihydro-2H-benzo[e][1,2]oxaborinine-8-carboxylic acid] | 0.5 to 1 | 0.5 to 1 | 0.5 to 1 | 0.5 to 1 | 0.5 to 1 | 16 to 32 (≈ 25.7 to 51.5 µM) | < 0.25 | < 0.25 |  | < 0.25 |  |  |  |  |  |  | 
12 | CCN1C[C@H](CO)N(C(=O)NC(C(=O)N[C@H]2Cc3ccc(F)c(C(=O)O)c3OB2O)c2ccc(O)c(O)c2Cl)C(=O)C1=O (stereo partly drawn) [Example 237, (3R)-3-(2-(2-chloro-3,4-dihydroxyphenyl)-2-((R)-4-ethyl-6-(hydroxymethyl)-2,3-dioxopiperazine-1-carboxamido)acetamido)-7-fluoro-2-hydroxy-3,4-dihydro-2H-benzo[e][1,2]oxaborinine-8-carboxylic acid] | 0.5 to 1 | < 0.25 | < 0.25 | < 0.25 | 2 to 4 | 4 to 8 (≈ 6.42 to 12.8 µM) | < 0.25 | < 0.25 |  | < 0.25 |  |  |  |  |  |  | 
13 | CCN1C[C@H](CCN)N(C(=O)NC(C(=O)N[C@H]2Cc3ccc(F)c(C(=O)O)c3OB2O)c2ccc(O)c(O)c2Cl)C(=O)C1=O (stereo partly drawn) [Example 238, (3R)-3-(2-((S)-6-(2-aminoethyl)-4-ethyl-2,3-dioxopiperazine-1-carboxamido)-2-(2-chloro-3,4-dihydroxyphenyl)acetamido)-7-fluoro-2-hydroxy-3,4-dihydro-2H-benzo[e][1,2]oxaborinine-8-carboxylic acid] | 2 to 4 |  | 2 to 4 |  |  | > 64 | < 0.25 |  |  | 0.5 to 1 |  | 2 to 4 | 8 to 16 | 8 to 16 |  |  | < 0.25
14 | CNCCN1CCN(C(=O)NC(C(=O)N[C@H]2Cc3cccc(C(=O)O)c3OB2O)c2ccc(O)c(O)c2Cl)C(=O)C1=O (stereo partly drawn) [Example 239, (3R)-3-(2-(2-chloro-3,4-dihydroxyphenyl)-2-(4-(2-(methylamino)ethyl)-2,3-dioxopiperazine-1-carboxamido)acetamido)-2-hydroxy-3,4-dihydro-2H-benzo[e][1,2]oxaborinine-8-carboxylic acid] | 2 to 4 | 2 to 4 | 2 to 4 | 2 to 4 | 2 to 4 | > 64 | < 0.25 | < 0.25 |  | 0.5 to 1 |  |  |  |  |  |  | 
